Values of other authors in US20100028446A1, “TRANSPORT OF DRUGS VIA THE BLOOD-BRAIN BARRIER BY MEANS OF APOLIPOPROTEINS” (priority 2007, published 2010).

Details: loaded on hydrophilic-protein nanoparticles coupled with apolipoprotein E

Substance: Dalargin
- transport across the blood-brain barrier: successfully transported across the blood-brain barrier
